From ChEMBL document CHEMBL4316623, “Phosphonodiamidate prodrugs of N-alkoxy analogs of a fosmidomycin surrogate as antimalarial and antitubercular agents” (Bioorg Med Chem Lett, 2019)
Activity calls are given as the source filed them. The rule behind the calls is not given here.

Experiments:
[1] = Oral bioavailability in human; type: ADME, organism-based; details: in vivo
[2] = Half life in human at 500 mg, po; type: ADME; details: in vivo
Plasmodium falciparum = assay: Antimalarial activity against Chloroquine-resistant Plasmodium falciparum K1 measured after 72 hrs by malstat/NBT dye based assay; type: functional, organism-based; details: K1, 72 h
[3] = tested on: Mycobacterium tuberculosis; assay: Antitubercular activity against Mycobacterium tuberculosis H37Rv up to 50 uM measured after 7 days by resazurin dye based colometric microtiter assay; type: functional, organism-based
[4] = Cytotoxicity against human MRC5 cells assessed as reduction in cell viability measured after 24 hrs by resazurin dye based fluorimetric assay
[5] = Selectivity index, ratio of CC50 for human MRC5 cells to IC50 for Chloroquine-resistant Plasmodium falciparum K1; type: toxicity; details: read-out: Ratio CC50/IC50

Row | SMILES | bioavailability [1] [%] | half-life [2] [h] | IC50 (Plasmodium falciparum) [µM] | Activity [3] | CC50 at 24 h [4] [µM] | selectivity ratio [5]
1 | O=CN(O)CCCP(=O)([O-])O.[Na+] [FOSMIDOMYCIN SODIUM] | 20 to 40 | 1.87 | – | – | – | –
2 | CCOC(=O)[C@H](CC(C)C)NP(=O)(CCCC(=O)N(C)OCc1ccc2ccccc2c1)N[C@@H](CC(C)C)C(=O)OCC | – | – | 6.22 | inactive | 5.47 | 0.88
3 | CCOC(=O)[C@H](CC(C)C)NP(=O)(CCCC(=O)N(C)OCCCCc1ccccc1)N[C@@H](CC(C)C)C(=O)OCC | – | – | 6.72 | inactive | 7.23 | 1.1
4 | CCOC(=O)[C@H](CC(C)C)NP(=O)(CCCC(=O)N(C)OCc1ccccc1)N[C@@H](CC(C)C)C(=O)OCC | – | – | 4.22 | inactive | > 64 | > 15
5 | CCOC(=O)[C@H](CC(C)C)NP(=O)(CCCC(=O)N(C)OCc1ccc(C(C)C)cc1)N[C@@H](CC(C)C)C(=O)OCC | – | – | 5.28 | inactive | 7.22 | 1.4
6 | CCOC(=O)[C@H](CC(C)C)NP(=O)(CCCC(=O)N(C)O)N[C@@H](CC(C)C)C(=O)OCC | – | – | 4.83 | inactive | > 64 | > 20
7 | CCOC(=O)[C@H](CC(C)C)NP(=O)(CCCC(=O)N(C)OCc1ccc(Cl)cc1)N[C@@H](CC(C)C)C(=O)OCC | – | – | 7.12 | inactive | 18.4 | 2.6
8 | CCOC(=O)[C@H](CC(C)C)NP(=O)(CCCC(=O)N(C)OCc1ccc(-c2ccccc2)cc1)N[C@@H](CC(C)C)C(=O)OCC | – | – | 5.25 | inactive | 5.94 | 1.1
9 | CCOC(=O)[C@H](CC(C)C)NP(=O)(CCCC(=O)N(C)OCCCc1ccccc1)N[C@@H](CC(C)C)C(=O)OCC | – | – | 8.93 | inactive | 23.1 | 2.6
